Test results reported in patent US20050020519A1, “Modulation of insulin-regulated aminopeptidase (irap)/angiotensin iv (at4) receptor activity” (priority 2001, published 2005).
Where no end group is shown, it is not given here.

Molecular target: T1, IRAP (Homo sapiens, UniProt Q9UIQ6)
T1 construct: expressed in transfected cells; host or cells: HEK 293T cells (solubilised membrane protein)
Experiment: IRAP enzymatic activity, hydrolysis of L-leucine-β-naphthylamide (fluorescence)
Type: biochemical
Source text: For example, Hek293 cells stably transfected with a eukaryotic expression vector expressing the AT4 receptor gene may be utilized. An example of this is the vector pcDNA-3 containing the cDNA encoding the full length AT4 receptor. Two assay systems are used, one for each spliced variant of the human AT4 receptor gene. The assay system involves the measurement of the rate of hydrolysis of L-leucyl β-naphthylamide by the AT4 receptor. The rate of hydrolysis by the transfected cells is followed by recording the increase in fluorescence (excitation at 340 nm, emission at 410 nm) using a purpose-designed fluorimeter. Test compounds are added to the assay system, and their effects on the hydrolysis of L-leucyl β-naphthylamide are a direct indicator of their modulation of AT4 receptor activity.
Crude membranes were prepared from HEK 293 cells stably transfected with pcDNA-3 containing the cDNA encoding the full length AT4 receptor/IRAP, using the same method as that described for bovine adrenal membranes. The membranes were solubilised in 50 mM Tris-HCl containing 1% Triton-X100 at 4° C. for 16 h. The IRAP enzymatic activity was determined by the hydrolysis of a synthetic substrate, L-leucine-β-naphthylamide, and monitored by the release of a fluorogenic product on a spectrophotometer set at excitation 340 nm and emission 410 nm. One hundred μM of the substrate was added to 10 μg of solubilised membranes, and the increase in fluorescence monitored for 10 min.
Samples were assayed 2-3 times in triplicate, except controls, which were performed 5 times in triplicate.

T1 sequence (Q9UIQ6 whole entry): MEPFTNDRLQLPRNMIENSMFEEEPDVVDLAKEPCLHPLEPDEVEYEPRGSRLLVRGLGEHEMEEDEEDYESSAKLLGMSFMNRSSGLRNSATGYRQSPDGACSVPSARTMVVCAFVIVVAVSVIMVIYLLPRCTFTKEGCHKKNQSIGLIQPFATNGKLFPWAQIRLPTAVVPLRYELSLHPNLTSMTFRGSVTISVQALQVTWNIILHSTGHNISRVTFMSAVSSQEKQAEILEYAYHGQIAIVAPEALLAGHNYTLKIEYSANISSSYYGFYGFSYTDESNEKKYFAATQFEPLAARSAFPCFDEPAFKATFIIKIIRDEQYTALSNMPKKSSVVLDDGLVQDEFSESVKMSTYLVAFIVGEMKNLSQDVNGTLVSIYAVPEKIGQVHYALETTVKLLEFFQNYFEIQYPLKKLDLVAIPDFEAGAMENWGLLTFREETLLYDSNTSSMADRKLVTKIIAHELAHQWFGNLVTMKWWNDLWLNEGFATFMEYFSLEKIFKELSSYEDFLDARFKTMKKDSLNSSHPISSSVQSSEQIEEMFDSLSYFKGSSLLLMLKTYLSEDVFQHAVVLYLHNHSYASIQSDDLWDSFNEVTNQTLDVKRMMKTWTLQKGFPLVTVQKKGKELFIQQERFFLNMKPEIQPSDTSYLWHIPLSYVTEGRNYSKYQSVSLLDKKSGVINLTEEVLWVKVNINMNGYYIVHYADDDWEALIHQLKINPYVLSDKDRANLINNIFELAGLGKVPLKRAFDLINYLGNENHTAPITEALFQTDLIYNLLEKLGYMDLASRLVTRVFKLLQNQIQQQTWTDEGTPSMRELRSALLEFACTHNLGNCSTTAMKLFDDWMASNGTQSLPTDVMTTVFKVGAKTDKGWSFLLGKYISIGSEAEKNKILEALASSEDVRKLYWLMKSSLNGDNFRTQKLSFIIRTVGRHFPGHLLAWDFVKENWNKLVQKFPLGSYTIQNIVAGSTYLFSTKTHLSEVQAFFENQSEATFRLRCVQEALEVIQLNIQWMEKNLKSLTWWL

LVVYPWTQRF
Ki: 845 nM | hydrolysis of L-leucine-β-naphthylamide by membranes containing IRAP (10 mM peptide): totally abolished | type of inhibition of IRAP (Lineweaver-Burk analysis): competitive inhibitors
